Data published in paper PMC9653409, “Generative deep learning enables the discovery of a potent and selective RIPK1 inhibitor” (Nature Communications, 2022).

Assays:
RIPK1 [1] = molecular target: T1, RIPK1 (Homo sapiens, UniProt Q13546); settings: cited from earlier work
T1 sequence (Q13546 1-671): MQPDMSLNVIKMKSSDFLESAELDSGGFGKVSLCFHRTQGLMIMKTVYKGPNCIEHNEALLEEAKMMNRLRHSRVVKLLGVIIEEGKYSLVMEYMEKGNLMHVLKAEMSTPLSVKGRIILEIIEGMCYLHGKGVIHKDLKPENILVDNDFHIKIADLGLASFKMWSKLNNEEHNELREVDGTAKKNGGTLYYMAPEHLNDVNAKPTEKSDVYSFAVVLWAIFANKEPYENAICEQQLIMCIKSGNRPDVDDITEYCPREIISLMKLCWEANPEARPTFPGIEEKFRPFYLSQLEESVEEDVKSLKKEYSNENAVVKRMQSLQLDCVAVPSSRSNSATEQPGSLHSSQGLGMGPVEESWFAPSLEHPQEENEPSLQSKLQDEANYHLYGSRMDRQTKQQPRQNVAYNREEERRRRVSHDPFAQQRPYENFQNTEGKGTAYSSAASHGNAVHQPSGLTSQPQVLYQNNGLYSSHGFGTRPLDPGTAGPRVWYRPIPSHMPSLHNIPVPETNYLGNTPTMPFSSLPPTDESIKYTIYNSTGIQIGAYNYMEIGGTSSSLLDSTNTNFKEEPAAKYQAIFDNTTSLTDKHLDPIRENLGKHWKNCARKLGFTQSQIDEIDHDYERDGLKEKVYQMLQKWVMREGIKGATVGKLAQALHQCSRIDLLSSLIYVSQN

RIPK1 [2] = molecular target: T1, RIPK1; assay: RIPK1 kinase assay, 33P-labeled ATP assay at Eurofins; format: biochemical; settings: read-out: RIPK1 IC50
Method: In vitro kinase activity assays were conducted through the Kinase Profiling Services provided by Eurofins (Eurofins, France). The protocol for the RIPK1 assay is briefly described as follows (Protocols for other kinases are very similar and can be found in http://www.eurofins.com/pharmadiscovery). RIPK1 kinase was incubated with the test compound in assay buffer containing 8 mM MOPS (pH 7.0), 0.2 mM EDTA, 250 μM […], 10 mM magnesium acetate, and 10 μM [γ-33P]-ATP for 15 min at room temperature. The reaction was initiated by the addition of the Mg/ATP mixture. After incubation for 40 min at room temperature, and the reaction was stopped by the addition of 3% phosphoric acid. A 10 μL portion of the reaction mixture was then spotted onto a P30 filter mat and washed four times for 4 min in 0.425% phosphoric acid and once in methanol prior to drying and scintillation counting.

HT29 cells = assay: TSZ-induced HT29 cell necroptosis model (CCK8); format: cell-based; settings: Homo sapiens, HT-29; TSZ-induced necroptosis; read-out: HT29 EC50
Method: Cell necroptosis protection assays were performed in 96-well cell culture plates. Cells were plated in each well and cultured at 37 °C overnight. […] The cell survival rate was determined using a CCK8 cell viability assay kit and CLARIOstar (v5.61). […] All experiments were performed at least two times, and each EC50 value was expressed as mean ± standard deviation (SD).

[3] = Cytotoxicity at high concentration; format: cell-based; settings: 3-10 μM

In the case of CN1C(=O)NC(Cc2c[nH]c3c(Cl)cccc23)C1=O (centres unmarked) [Nec-1a], the “potency against RIPK1” value (RIPK1 [1]) is given as 317 nM.

For CC(NC(=O)c1cn(C)c2ccc(-c3ccn4nc(NC(=O)C5CC5)cc4n3)cc12)c1ccccc1 (centres unmarked) [RI-056], the IC50 (RIPK1 [2]) was 65 nM, the EC50 (HT29 cells) was 49 nM and the cytotoxicity [3] was “some cytotoxicity at high concentration (3-10 μM)”.

CNC(=O)c1n[nH]c2cc(-c3ccc(C(=O)NCc4ccc(OCCC5CC5)cc4)nc3)ccc12 [RI-413] gave an IC50 (RIPK1 [2]) greater than 10000 nM and an EC50 (HT29 cells) greater than 30000 nM.

CC(NCC(=O)Nc1cccc(-c2cc(C(=O)NCc3cccc(F)c3)n(C)c2)n1)c1ccccc1F (centres unmarked) [RI-470, N-(3-fluorobenzyl)-4-(6-(2-((1-(2-fluorophenyl)ethyl)amino)acetamido)pyridin-2-yl)-1-methyl-1H-pyrrole-2-carboxamide] showed an IC50 (RIPK1 [2]) greater than 10000 nM and an EC50 (HT29 cells) greater than 100000 nM.

Cc1cc(Oc2ccc(F)c(C(=O)NCc3ccc(F)cc3)n2)cc(C(=O)NCc2ccc(Br)s2)c1 [RI-539] showed an IC50 (RIPK1 [2]) greater than 10000 nM and an EC50 (HT29 cells) greater than 30000 nM.

CCOc1ccccc1CNCC(=O)c1cn2ccc(-c3ccn4nc(NC(=O)C(C)C)nc4c3)cc2n1 [RI-753, N-(7-(2-((2-ethoxybenzyl)glycyl)imidazo[1,2-a]pyridin-7-yl)-[1,2,4]triazolo[1,5-a]pyridin-2-yl)isobutyramide] gave an IC50 (RIPK1 [2]) of 463 nM and an EC50 (HT29 cells) of 64 nM.

For CC(=O)Nc1cn2cc(-c3ccc(CNC(=O)c4cc(F)ccc4OCC4CCCC4)nc3)ccc2n1 [RI-985], the IC50 (RIPK1 [2]) was greater than 10000 nM and the EC50 (HT29 cells) was greater than 30000 nM.

For CC(NC(=O)c1cn(C)c2ccc(-c3ccn4nc(NC(=O)C5CC5)cc4n3)cc12)c1ccc(F)cc1 (centres unmarked) [RI-1155], the IC50 (RIPK1 [2]) was 49 nM, the EC50 (HT29 cells) was 40 nM and the cytotoxicity [3] was “some cytotoxicity at high concentration (3-10 μM)”.
